Measurements from ChEMBL document CHEMBL1201862, “PubChem BioAssay data set” (2004).
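Interpolation was linear, between the two tested concentrations surrounding the appropriate level; five concentrations were tested over 48 hours in 96-well plates. At the GI50, growth is halved.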 Activity calls are given as the source filed them. Rule as the data show it: active = GI50 up to about 1.1 µM and inactive = higher.

Legend:
Assay in all cases: NCI tumour cell line growth inhibition, 48 h
786-0 = tested on: 786-0
ACHN = tested on: ACHN
CAKI-1 = tested on: CAKI-1
DU-145 = tested on: DU-145
HCC 2998 = tested on: HCC 2998
HCT-15 = tested on: HCT-15
HL-60 = tested on: HL-60
HOP-62 = tested on: HOP-62
Hs-578T = tested on: Hs-578T
M14 = tested on: M14
MOLT-4 = tested on: MOLT-4
NCI-H226 = tested on: NCI-H226
NCI-H23 = tested on: NCI-H23
NCI/ADR-RES = tested on: NCI/ADR-RES
OVCAR-5 = tested on: OVCAR-5
SK-MEL-5 = tested on: SK-MEL-5
SNB-75 = tested on: SNB-75
TK-10 = tested on: TK-10
UACC-62 = tested on: UACC-62
UO-31 = tested on: UO-31

Row | Structure (SMILES) | GI50 (786-0) | GI50 (ACHN) | GI50 (CAKI-1) | GI50 (DU-145) | GI50 (HCC 2998) | GI50 (HCT-15) [µM] | GI50 (HL-60) | GI50 (HOP-62) | GI50 (Hs-578T) | GI50 (M14) | GI50 (MOLT-4) | GI50 (NCI-H226) | GI50 (NCI-H23) | GI50 (NCI/ADR-RES) | GI50 (OVCAR-5) | GI50 (SK-MEL-5) | GI50 (SNB-75) | GI50 (TK-10) | GI50 (UACC-62) | GI50 (UO-31)
1 | C=CC(=O)N1C/C(=C\c2ccc(OC)cc2)C(=O)/C(=C/c2ccc(OC)cc2)C1 | 1.74 µM (inactive) | 1.78 µM (inactive) | 3.22 µM (inactive) | 3.91 µM (inactive) | 1.5 µM (inactive) | 1.56 | 0.69 µM (active) | 2.55 µM (inactive) | 3.34 µM (inactive) | 2.15 µM (inactive) | 1.76 µM (inactive) | 2 µM (inactive) | 2.01 µM (inactive) | 3.12 µM (inactive) | 4.9 µM (inactive) | 2.61 µM (inactive) | 6.05 µM (inactive) | 3.66 µM (inactive) | 1.94 µM (inactive) | 1.77 µM (inactive)
2 | COc1ccc2nc(N/N=C/c3ccc(C)s3)cc(C)c2c1 | 13 µM (inactive) | 17.7 µM (inactive) | 23 µM (inactive) | 17.7 µM (inactive) | 16 µM (inactive) | 7.96 | 27.2 µM (inactive) | 20.1 µM (inactive) | 22.1 µM (inactive) | 16.6 µM (inactive) | 12.9 µM (inactive) | 14.8 µM (inactive) | 13.5 µM (inactive) | 19.7 µM (inactive) | 15.7 µM (inactive) | 15.5 µM (inactive) | 24.3 µM (inactive) | 21.6 µM (inactive) | 16.8 µM (inactive) | 17.7 µM (inactive)
3 | O=C(c1ccsc1)c1cc2c(s1)C(=O)c1ccsc1C2=O | 0.189 µM (active) | 0.0959 µM (active) | 0.499 µM (active) | 0.159 µM (active) | 0.537 µM (active) | 0.155 | 1.48 µM (inactive) | 0.168 µM (active) | 0.209 µM (active) | 0.116 µM (active) | 0.435 µM (active) | 0.552 µM (active) | 0.137 µM (active) | 0.137 µM (active) | 0.552 µM (active) | 0.0279 µM (active) | 0.171 µM (active) | 0.64 µM (active) | 0.194 µM (active) | 0.0893 µM (active)
4 | O=C1/C(=C/C=C/c2ccccc2)CCC1CNc1ccccc1 (stereo not given) | 16.6 µM (inactive) | 76.9 µM (inactive) | 40.2 µM (inactive) | > 93.3 µM (inactive) | > 68.5 µM (inactive) | 18.4 | 4.07 µM (inactive) | > 100 µM (inactive) | > 67 µM (inactive) | 30.2 µM (inactive) | 20.3 µM (inactive) | > 100 µM (inactive) | 27.7 µM (inactive) | 96.8 µM (inactive) | > 65.8 µM (inactive) | 67 µM (inactive) | > 100 µM (inactive) | 33 µM (inactive) | 50.4 µM (inactive) | 59.8 µM (inactive)
5 | CC(C)CCNc1ncnc2[nH]ncc12 | > 100 µM (inactive) | 68.9 µM (inactive) | 98.6 µM (inactive) | > 100 µM (inactive) | > 100 µM (inactive) | > 100 | > 100 µM (inactive) | 96.6 µM (inactive) | 46.7 µM (inactive) | > 100 µM (inactive) | 65.6 µM (inactive) | 60.3 µM (inactive) | > 100 µM (inactive) | 77.4 µM (inactive) | 49.4 µM (inactive) | 36.6 µM (inactive) | > 100 µM (inactive) | > 100 µM (inactive) | > 100 µM (inactive) | > 100 µM (inactive)
6 | COc1cccc(/C(CC(O)(C(F)(F)F)C(F)(F)F)=N\N(C)C)c1 | > 100 µM (inactive) | > 100 µM (inactive) | > 100 µM (inactive) | > 100 µM (inactive) | > 100 µM (inactive) | > 100 | > 100 µM (inactive) | > 100 µM (inactive) | > 100 µM (inactive) | > 100 µM (inactive) | > 100 µM (inactive) | > 100 µM (inactive) | > 100 µM (inactive) | > 100 µM (inactive) | > 100 µM (inactive) | > 100 µM (inactive) | > 100 µM (inactive) | > 100 µM (inactive) | > 100 µM (inactive) | > 100 µM (inactive)
7 | O=C(CBr)NCCc1c[nH]c2ccccc12 | 1.4 µM (inactive) | 1.73 µM (inactive) | 0.776 µM (active) | 2.07 µM (inactive) | 9.95 µM (inactive) | 1.76 | 1.7 µM (inactive) | 1.94 µM (inactive) | 5.14 µM (inactive) | 1.66 µM (inactive) | 0.406 µM (active) | 0.655 µM (active) | 1.46 µM (inactive) | 2.11 µM (inactive) | 1.87 µM (inactive) | 1.17 µM (inactive) | 1.65 µM (inactive) | 1.86 µM (inactive) | 1.75 µM (inactive) | 1.72 µM (inactive)
8 | C[C@]12CC[C@H](O)C[C@H]1CC[C@@H]1[C@@H]2CC[C@]2(C)[C@@H](C3=CC(=O)OC3)[C@@H](O)C[C@]12O [GITOXIGENIN] | 0.995 µM (active) | 0.451 µM (active) | 1.58 µM (inactive) | 1.04 µM (active) | 2.47 µM (inactive) | 2.58 | 1.62 µM (inactive) | 1.11 µM (active) | 0.968 µM (active) | 2.45 µM (inactive) | 0.408 µM (active) | 3.12 µM (inactive) | 0.682 µM (active) | 1.61 µM (inactive) | 2.81 µM (inactive) | 1.3 µM (inactive) | 4.15 µM (inactive) | 0.625 µM (active) | 2.62 µM (inactive) | 0.914 µM (active)
9 | Nc1ccc(S(=O)(=O)Nc2cnc3ccccc3n2)cc1 [SULFAQUINOXALINE] | > 100 µM (inactive) | > 100 µM (inactive) | > 100 µM (inactive) | > 100 µM (inactive) | > 100 µM (inactive) | > 100 | > 100 µM (inactive) | > 100 µM (inactive) | < 0.01 µM (active) | > 100 µM (inactive) | > 100 µM (inactive) | > 100 µM (inactive) | > 100 µM (inactive) | > 100 µM (inactive) | > 100 µM (inactive) | > 100 µM (inactive) | 26.7 µM (inactive) | > 100 µM (inactive) | > 100 µM (inactive) | > 100 µM (inactive)
